From patent US20100216755A1, “ANTI-TUMOR AGENT” (AJINOMOTO CO. INC, priority 2001, published 2010)
Where a name gives a salt, the structure may show the parent alone. Marks after values point to notes of the source that are not given here.

What was measured:
[1] = system: Malignant fibrous histiocytoma MT-9; assay: Anti-tumor effect, MT-9/F344 system (tumor volume, I.R.); assay type: in vivo, rat (F344); details: for I.R.(%): 3 times every 3 days
Procedure: • Rat tumor cell line (transplant rat strain); • Malignant fibrous histiocytoma MT-9 (F344, male)
MT-9 was obtained as in-vitro cultured cells, which were cultured in RPMI1640 medium containing 10% FBS. 10^7 or more of the MT-9 cells were subcutaneously transplanted into the back of rats. After tumor formation, tumor slices (about 100 mg) were inoculated subcutaneously into rats using cannula for serial passage.
The MT-9/F344 system: Tumors serially passed by the subcutaneous transplantation were extirpated. After binding tissues and necrosis portions in the tumors had been removed, tumor tissues were minced with scissors and made pasty. About 50-100 mg of the tumor tissues were subcutaneously transplanted into the backs of F344 rats (day 0).
After the tumors were multiplied to a measurable quantity (about 1-2 weeks later), the tumor size (tumor volume) and body weight were measured and divided into tumor size-and body weight-matched groups.
The tumor sizes (tumor volumes) and body weights were measured every day from the next day to about the third day following completion of administration. Incidentally, the tumor volume was calculated according to the following formula:
Tumor volume (mm^3)=[…].
T/C(%)=[(tumor volume for the medicine administered group)÷(tumor volume for the control group)]×100
The influence of Dexamethasone on the pharmaceutical effect of AC-7700 was investigated using F344 rats, subcutaneously transplanted MT-9. AC-7700 was administered at a dosage of 10 mg/kg, and 1 mg/kg of Dexamethasone was administered on the day before the AC-7700 administration. Both the medical agents were 3 times administered every 3 days.

[2] = Maximum tolerable dose in CDF1 mice; assay type: in vivo; details: AC-7700 s.c. 3 times every 3 days, CDF1 mice (female)

## COc1ccc(/C=C\c2cc(OC)c(OC)c(OC)c2)cc1NC(=O)[C@@H](N)CO [AC-7700, (Z)—N-[2-methoxy-5-[2-(3,4,5-trimethoxyphenyl)vinyl]phenyl]-L-serinamide hydrochloride]
[1]; AC-7700 10 mg/kg as single agent, F344 rats, s.c. MT-9
  tumor growth: significantly inhibited tumor growth
[1]; AC-7700 10 mg/kg in combination with Dexamethasone 1 mg/kg, no significant difference from AC-7700 alone (Scheffe's F test)
  tumor growth: inhibited tumor growth in the same manner
[1]; AC-7700 10 mg/kg/day alone (DEX 0), F344 rats, s.c. MT-9
  I.R.(%): 84** %
[1]; AC-7700 10 mg/kg/day combined with DEX 1 mg/kg/day given the day before, F344 rats, s.c. MT-9
  I.R.(%): 72** %
[2]; with Dexamethasone 5 mg/kg/day i.v. on the day before and the day of AC-7700
  maximum tolerable dose of AC-7700: more than 90 mg/kg/day
[2]; without Dexamethasone
  maximum tolerable dose of AC-7700: 43.6 mg/kg/day
